Source: the NIST ThermoML archive (doi:10.1007/s10765-005-8592-5)
Values joined by “and” are separate entries in the source; they are usually repeats but may differ in a detail not shown here. Equal entries are not always repeated.

Assays:
[1] = molar heat capacity at constant volume; xn = mol fraction of the nth substance listed; settings: Fluid (supercritical or subcritical phases), Vacuum adiabatic calorimetry
[2] = xn = mol fraction of the nth substance listed; settings: Fluid (supercritical or subcritical phases), isochoric method

CC(C)C [2-methylpropane] + CCC
Settings	mass density, [2] [kg/m3]	molar heat capacity at constant volume, [1]
270.15 K, 4579 kPa, x2 = 0.498	566.8	82.79 J/K/mol
275.15 K, 8198 kPa, x2 = 0.498	566.3	81.61 J/K/mol
280.15 K, 11759 kPa, x2 = 0.498	565.9	82.79 J/K/mol
285.15 K, 15256 kPa, x2 = 0.498	565.5	84.27 J/K/mol
290.15 K, 18687 kPa, x2 = 0.498	565.1	85.14 J/K/mol
295.15 K, 22038 kPa, x2 = 0.498	564.8	85.81 J/K/mol
300.15 K, 25302 kPa, x2 = 0.498	564.5	87.7 J/K/mol
305.15 K, 28471 kPa, x2 = 0.498	564.2	89.64 J/K/mol
315.15 K, 9748 kPa, x2 = 0.498	524.3	89.39 J/K/mol
320.15 K, 12415 kPa, x2 = 0.498	523.9	91.23 J/K/mol
325.15 K, 15069 kPa, x2 = 0.498	523.6	92.35 J/K/mol
330.15 K, 17709 kPa, x2 = 0.498	523.3	91.89 J/K/mol
335.15 K, 20336 kPa, x2 = 0.498	523	93.07 J/K/mol
340.15 K, 22950 kPa, x2 = 0.498	522.8	92.66 J/K/mol
345.15 K, 25550 kPa, x2 = 0.498	522.5	92.4 J/K/mol
350.15 K, 7962 kPa, x2 = 0.498	471.7	93.89 J/K/mol
350.15 K, 28136 kPa, x2 = 0.498	522.3	93.22 J/K/mol
355.15 K, 9814 kPa, x2 = 0.498	471.4	93.73 J/K/mol
360.15 K, 11663 kPa, x2 = 0.498	471.2	93.73 J/K/mol
365.15 K, 13509 kPa, x2 = 0.498	470.9	93.22 J/K/mol
370.15 K, 15351 kPa, x2 = 0.498	470.7	94.71 J/K/mol
375.15 K, 17187 kPa, x2 = 0.498	470.5	94.19 J/K/mol
380.15 K, 19017 kPa, x2 = 0.498	470.2	95.06 J/K/mol
380.15 K, 20994 kPa, x2 = 0.756	458.6	88.38 J/K/mol
385.15 K, 4713 kPa, x2 = 0.756	279.9	150.35 J/K/mol
385.15 K, 22824 kPa, x2 = 0.756	458.4	90.71 J/K/mol
390.15 K, 5229 kPa, x2 = 0.756	279.8	127.92 J/K/mol
390.15 K, 22647 kPa, x2 = 0.498	469.8	97.67 J/K/mol
395.15 K, 4489 kPa, x2 = 0.498	274.1	183.94 J/K/mol
395.15 K, 5756 kPa, x2 = 0.756	279.7	116.61 J/K/mol
400.15 K, 4949 kPa, x2 = 0.498	274	160.01 J/K/mol
400.15 K, 6290 kPa, x2 = 0.756	279.6	105.82 J/K/mol
405.15 K, 5419 kPa, x2 = 0.498	273.9	144.56 J/K/mol
405.15 K, 6830 kPa, x2 = 0.756	279.6	101.36 J/K/mol
410.15 K, 5896 kPa, x2 = 0.498	273.8	131.68 J/K/mol
410.15 K, 7375 kPa, x2 = 0.756	279.5	96.37 J/K/mol
415.15 K, 4254 kPa, x2 = 0	273.8	230.8 J/K/mol and 222.08 J/K/mol
415.15 K, 6379 kPa, x2 = 0.498	273.7	124.31 J/K/mol
415.15 K, 7922 kPa, x2 = 0.756	279.4	93.23 J/K/mol
420.15 K, 4664 kPa, x2 = 0	273.7	202.67 J/K/mol
420.15 K, 4665 kPa, x2 = 0	273.8	202.96 J/K/mol
420.15 K, 6865 kPa, x2 = 0.498	273.6	115.11 J/K/mol
420.15 K, 8472 kPa, x2 = 0.756	279.3	90.85 J/K/mol
425.15 K, 5082 kPa, x2 = 0	273.7	186.05 J/K/mol
425.15 K, 5083 kPa, x2 = 0	273.7	187.1 J/K/mol
425.15 K, 7354 kPa, x2 = 0.498	273.6	109.18 J/K/mol

CCC [propane] + CC(C)C
x1 = 1
Settings	mass density, [2] [kg/m3]	molar heat capacity at constant volume, [1] [J/K/mol]
270.15 K, 4427 kPa	539.9	71.74
275.15 K, 7953 kPa	539.6	71.26
280.15 K, 11458 kPa	539.3	71.3
285.15 K, 14939 kPa	539	72.63
290.15 K, 18398 kPa	538.7	73.46
295.15 K, 21836 kPa	538.4	74.57
300.15 K, 25251 kPa	538.1	74.61
305.15 K, 28640 kPa	537.8	74.35
310.15 K, 6561 kPa	490.3	74.57
315.15 K, 9049 kPa	490.1	75.23
320.15 K, 11532 kPa	489.8	76.15
325.15 K, 3660 kPa	454.8	77.96
325.15 K, 14008 kPa	489.6	76.37
330.15 K, 5594 kPa	454.6	78.75
330.15 K, 16475 kPa	489.3	76.64
335.15 K, 7530 kPa	454.3	78.31
335.15 K, 18934 kPa	489.1	76.9
340.15 K, 9468 kPa	454.1	77.7
340.15 K, 21386 kPa	488.9	77.21
345.15 K, 11404 kPa	453.9	77.26
345.15 K, 23827 kPa	488.6	76.33
350.15 K, 13339 kPa	453.7	79.46
350.15 K, 26253 kPa	488.4	77.52
355.15 K, 15273 kPa	453.5	77.39
355.15 K, 28668 kPa	488.2	77.43
360.15 K, 17203 kPa	453.3	77.74
365.15 K, 19126 kPa	453.1	78.62
370.15 K, 21044 kPa	452.9	79.15
375.15 K, 5095 kPa	301.1	98.6
380.15 K, 5744 kPa	301	93.04
385.15 K, 6404 kPa	300.9	89.6
390.15 K, 7072 kPa	300.8	86.07
395.15 K, 7746 kPa	300.7	84.84
400.15 K, 8425 kPa	300.6	80.43
405.15 K, 9109 kPa	300.5	78.84
410.15 K, 9795 kPa	300.4	79.99
420.15 K, 11176 kPa	300.2	79.81
425.15 K, 11869 kPa	300.1	81.75
